Results published in patent publication US10626092B2, “Polymorphic forms of 3-[(2-butyl-1-(2-diethylamino-ethyl)-1H-benzoimidazol-5-yl]-N-hydroxy-acrylamide and uses thereof” (MEI PHARMA, INC., priority 2016, dated 2020).
Structures can show the parent of a compound that is named as a salt.

Tests used:
Type in all cases: physicochemical
[1] = Variable humidity XRPD; details: variable humidity XRPD at 30° C.; dihydrochloride monohydrate
Description: (§1) The analytical method is described herein.
as §1
For variable humidity and temperature experiments the ANSYCO HT chamber was used, installed within the D8 Advance system diffractometer (Bruker) designed with Brag-Brentano geometry and equipped with LynxEye solid state detector. The radiation used for collecting the data was CuKα1 (λ=1.54056 Å) monochromatized by germanium crystal. The material was placed on a fixed sample holder that was mounted inside the chamber.

[2] = Competitive slurry conversion (thermodynamic stability) of Form 1 and Form 3; details: one week slurry
Experimental: Approximately 50 mg of each solid form were solid dosed in a standard HPLC vial followed by solvent addition. The competitive slurry experiments were performed in ethanol/water mixtures and methanol/water mixtures within a water activity range of 0-0.2. Approximately 50 mg of each pracinostat dihydrochloride solid form 2.5 hydrate and monohydrate were solid dosed in 1.8 mL HPLC vials. Aliquots of 100 μL of the different water mixtures were added until about half of the amount of solid was in solution. […] Upon completion of the equilibration time, the solids were separated from the liquids by centrifugation. The solids were dried under ambient conditions (ambient) and dried under vacuum (vacuum) before HT-XRPD analysis. All solid samples were exposed to accelerated gaining conditions (40° C. and 70% RH) for two days (AAC). The water content in the liquid phase was determined Karl Fischer analysis.

[3] = Moisture sorption study (DVS analysis)
[4] = Thermocycling studies; details: ethanol, absolute or extra dry; dihydrochloride monohydrate
Experimental: The suspensions were cycled between 5° C. and 50° C. followed by aging at 25° C. for 72 hours. […] Upon completion of the incubation time, the solids were collected, dried under ambient conditions and dried under deep vacuum before being analyzed by HT-XRPD. All the measured solids were exposed to accelerated ageing conditions (2 days at 40° C./70% RH) followed by re-analysis by HT-XRPD.

Q: Which results are given for `CCCCc1nc2cc(/C=C/C(=O)NO)ccc2n1CCN(CC)CC` [Form 1, 3-[2-butyl-1-(2-diethylamino-ethyl)-1H-benzoimidazol-5-yl]-N-hydroxy-acrylamide dihydrochloride monohydrate]?
A: relative humidity at which the form is physically stable [1]: 10-85 % RH; water content of the solvent system at which the form is the most stable / obtained form ([2]; ethanol/water, 5° C. (below ambient), dihydrochloride monohydrate): below 2%; water content of the solvent system at which the form is the most stable form ([2]; ethanol/water, 50° C. (elevated temperatures), dihydrochloride monohydrate): 2-4%; water content of the solvent system at which the form is the most stable form ([2]; methanol/water, 5° C.): below 6%; relative humidity level above which conversion to the 2.5 hydrate (Form 3) occurs ([3]; DVS 45-95% RH): above 85%; hygroscopicity ([3]; DVS, dihydrochloride monohydrate): hygroscopic; solid form recovered after DVS ([3]; two sorption-desorption cycles 45-95-0-95-0-45% RH, HT-XRPD, dihydrochloride monohydrate): conversion mainly to the 2.5 hydrate (Form 3); solid form after thermocycling [4]: transformed into the anhydrous Form 9
